# Source: the supplement of paper PMC11061612
# How the values were obtained:
# Test in all cases: Bliss excess, mean over the matrix (fraction); higher = more synergy
# [1] = test system: P12-ICHIKAWA (T-Lymphoblastic Leukemia)
# Method in brief: (§1)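 Cell lines grown in DMEM/F12 or RPMI with 10% FBS were plated in 1536-well plates and held 24 hours at 37°C, 5% CO2 before 72 hours of exposure to two-drug dose matrices, with DMSO typically at 0.2%. CellTiter-Glo 2.0 luminescence gave viability, which was converted to inhibition. Vehicle wells were set to 0 and blank wells to 1. Combination Emax is the second-highest inhibition in the matrix, and Bliss excess is the observed combination effect minus the expected EA + EB − EA·EB, where EA and EB are the single-agent effects.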
# [2] = test system: SU-DHL-8 (B-Cell Non-Hodgkin's Lymphoma)
# Method in brief: as §1
# [3] = test system: MOLT-16 (T-Lymphoblastic Leukemia)
# Method in brief: as §1
# [4] = test system: ES8 (Ewing's Sarcoma)
# Method in brief: as §1
# [5] = test system: U251 (Low Grade Glioma)
# Method in brief: as §1
# [6] = test system: ES1 (Ewing's Sarcoma)
# Method in brief: as §1
# [7] = test system: MS751 (Cervical Carcinoma)
# Method in brief: as §1
# [8] = test system: MFM-223 (Breast Carcinoma)
# Method in brief: as §1
# [9] = test system: COLO-678 (Colorectal Carcinoma)
# Method in brief: as §1
# [10] = test system: CHP-212 (Neuroblastoma)
# Method in brief: as §1
# [11] = test system: LN-18 (Glioblastoma)
# Method in brief: as §1
# [12] = test system: KCL-22 (Chronic Myelogenous Leukemia)
# Method in brief: as §1
# [13] = test system: PANC-08-13 (Pancreatic Carcinoma)
# Method in brief: as §1
# [14] = test system: NCI-H2818 (Mesothelioma)
# Method in brief: as §1
# [15] = test system: DiFi (Colorectal Carcinoma)
# Method in brief: as §1
# [16] = test system: HL-60 (Acute Myeloid Leukemia)
# Method in brief: as §1
# [17] = test system: BL-41 (Burkitt's Lymphoma)
# Method in brief: as §1
# [18] = test system: WM-115 (Melanoma)
# Method in brief: as §1
# [19] = test system: SR (Other Blood Carcinomas)
# Method in brief: as §1
# [20] = test system: KYSE-180 (Esophageal Squamous Cell Carcinoma)
# Method in brief: as §1
Compound,Bliss excess [1],Bliss excess [2],Bliss excess [3],Bliss excess [4],Bliss excess [5],Bliss excess [6],Bliss excess [7],Bliss excess [8],Bliss excess [9],Bliss excess [10],Bliss excess [11],Bliss excess [12],Bliss excess [13],Bliss excess [14],Bliss excess [15],Bliss excess [16],Bliss excess [17],Bliss excess [18],Bliss excess [19],Bliss excess [20]
"Cc1c2c(nn1C)CSCc1cc(n(C)n1)CSc1cc(c3ccccc3c1)OCCCc1c(C(=O)O)n(C)c3c-2c(Cl)ccc13 [AZD5991] + Cn1cnc2c(F)c(Nc3ccc(Br)cc3Cl)c(C(=O)NOCCO)cc21 [Selumetinib] (first compound max 1 µM, 7x7, partner max 3 µM)",0.0419,-0.074,-0.0205,-0.0171,-0.0024,0.0123,0.067,-0.0199,-0.0226,-0.0136,0.0745,0.078,0.0025,-0.0458,0.0064,0.0587,-0.0206,-0.0114,-0.0007,0.0341
"CN(CCO)CC[C@H](CSc1ccccc1)Nc1ccc(S(=O)(=O)NC(=O)c2ccc(N3CCC([C@@H](O)c4ccccc4-c4ccc(Cl)cc4)CC3)cc2)cc1S(=O)(=O)C(F)(F)F [AZD4320] + C[C@@H]1COCCN1C2=NC(=NC(=C2)C3(CC3)[S@](=N)(=O)C)C4=C5C=CNC5=NC=C4 [AZD6738] (first compound max 1 µM, 7x7, partner max 10 µM)",-0.0133,0.019,-0.0095,0.155,-0.0272,0.0567,0.0029,-0.0367,-0.0616,-0.0496,-0.0705,0.0092,-0.019,-0.157,-0.0044,-0.0348,-0.0221,-0.0413,-0.0068,-0.0042
"CC(=O)c1c(C)c2cnc(Nc3ccc(N4CCNCC4)cn3)nc2n(C2CCCC2)c1=O [Palbociclib] + Cc1c2c(nn1C)CSCc1cc(n(C)n1)CSc1cc(c3ccccc3c1)OCCCc1c(C(=O)O)n(C)c3c-2c(Cl)ccc13 [AZD5991] (first compound max 10 µM, 7x7, partner max 1 µM)",-0.0467,-0.22,-0.0427,0.0838,-0.0479,-0.0169,-0.0294,-0.0784,-0.0814,0.0199,-0.0153,0.0403,-0.0427,-0.0386,-0.0139,-0.0214,-0.0691,-0.0282,0.0286,-0.0602
"CC1(C)CCC(CN2CCN(c3ccc(C(=O)NS(=O)(=O)c4ccc(NCC5CCOCC5)c([N+](=O)[O-])c4)c(Oc4cnc5[nH]ccc5c4)c3)CC2)=C(c2ccc(Cl)cc2)C1 [Venetoclax] + C=CCn1c(=O)c2cnc(Nc3ccc(N4CCN(C)CC4)cc3)nc2n1-c1cccc(C(C)(C)O)n1 [AZD1775] (first compound max 1 µM, partner max 1 µM)",0.0117,0.0401,0.143,0.0309,-0.0787,0.0747,0.0125,-0.0987,-0.0371,-0.0497,0.0062,-0.0114,-0.0153,-0.0649,-0.0222,-0.0175,-0.0319,-0.0465,0.062,0.0264
"CC(=O)c1c(C)c2cnc(Nc3ccc(N4CCNCC4)cn3)nc2n(C2CCCC2)c1=O [Palbociclib] + CC1(C)CCC(CN2CCN(c3ccc(C(=O)NS(=O)(=O)c4ccc(NCC5CCOCC5)c([N+](=O)[O-])c4)c(Oc4cnc5[nH]ccc5c4)c3)CC2)=C(c2ccc(Cl)cc2)C1 [Venetoclax] (first compound max 10 µM, 7x7, partner max 1 µM)",-0.0157,-0.0096,0.0452,0.0365,-0.0348,-0.0214,-0.0251,0.0031,0.0158,0.023,0.0187,0.0057,-0.0361,-0.0146,0.0239,-0.0215,-0.0842,-0.0708,-0.0245,-0.012
"CN(CCO)CC[C@H](CSc1ccccc1)Nc1ccc(S(=O)(=O)NC(=O)c2ccc(N3CCC([C@@H](O)c4ccccc4-c4ccc(Cl)cc4)CC3)cc2)cc1S(=O)(=O)C(F)(F)F [AZD4320] + Cn1cnc2c(F)c(Nc3ccc(Br)cc3Cl)c(C(=O)NOCCO)cc21 [Selumetinib] (first compound max 1 µM, 7x7, partner max 3 µM)",0.0748,-0.102,-0.0335,-0.0479,-0.0087,0.0147,0.0636,-0.0146,0.0536,-0.0108,0.031,0.0271,0.0195,-0.0136,0.0838,0.0259,0.039,0.102,0.0208,0.0148
"CC1(C)CCC(CN2CCN(c3ccc(C(=O)NS(=O)(=O)c4ccc(NCC5CCOCC5)c([N+](=O)[O-])c4)c(Oc4cnc5[nH]ccc5c4)c3)CC2)=C(c2ccc(Cl)cc2)C1 [Venetoclax] + CN(C)CCCOc1ccc(-c2ccc3ncc4c(c3c2)n(C2CCOCC2)c(=O)n4C)cn1 [AZD0156] (first compound max 1 µM, 7x7, partner max 1 µM)",0.0509,-0.0201,0.0462,0.0212,-0.026,0.0421,0.0165,-0.0313,-0.0549,-0.034,-0.0488,0.0042,0.0037,-0.0501,0.0216,0.0448,0.0008,-0.0314,-0.0266,-0.0128
"CC1(C)CCC(CN2CCN(c3ccc(C(=O)NS(=O)(=O)c4ccc(NCC5CCOCC5)c([N+](=O)[O-])c4)c(Oc4cnc5[nH]ccc5c4)c3)CC2)=C(c2ccc(Cl)cc2)C1 [Venetoclax] + C1CN(CCC1(C(=O)N[C@@H](CCO)C2=CC=C(C=C2)Cl)N)C3=NC=NC4=C3C=CN4 [Capivasertib] (first compound max 1 µM, 7x7, partner max 3 µM)",0.0039,-0.0918,0.0937,-0.0933,-0.0133,0.0278,-0.0161,-0.0258,-0.118,-0.0467,-0.0374,0.0015,-0.0608,-0.0628,-0.022,0.0198,-0.0058,-0.0785,-0.0142,-0.0208
"Cn1cnc2c(F)c(Nc3ccc(Br)cc3Cl)c(C(=O)NOCCO)cc21 [Selumetinib] + CCN(CCO)CCCOc1ccc2c(Nc3cc(CC(=O)Nc4cccc(F)c4)[nH]n3)ncnc2c1 [AZD2811] (first compound max 10 µM, 7x7, partner max 1 µM)",0.0216,-0.0216,-0.0271,-0.0089,-0.034,0.0048,0.055,-0.0363,-0.0223,-0.0316,-0.0192,0.0941,-0.0278,-0.0106,0.0371,0.0017,0.0338,-0.042,0.0128,-0.0408
"Cc1c2c(nn1C)CSCc1cc(n(C)n1)CSc1cc(c3ccccc3c1)OCCCc1c(C(=O)O)n(C)c3c-2c(Cl)ccc13 [AZD5991] + C=CCn1c(=O)c2cnc(Nc3ccc(N4CCN(C)CC4)cc3)nc2n1-c1cccc(C(C)(C)O)n1 [AZD1775] (first compound max 1 µM, partner max 1 µM)",0.0528,-0.01,0.01,0.0203,0.0025,-0.0524,-0.0155,-0.0611,-0.0614,-0.0508,-0.0087,-0.035,0.0156,0.112,0.0285,-0.0149,-0.0133,-0.0328,-0.045,0.0464
"CN(CCO)CC[C@H](CSc1ccccc1)Nc1ccc(S(=O)(=O)NC(=O)c2ccc(N3CCC([C@@H](O)c4ccccc4-c4ccc(Cl)cc4)CC3)cc2)cc1S(=O)(=O)C(F)(F)F [AZD4320] + C1CN(CCC1(C(=O)N[C@@H](CCO)C2=CC=C(C=C2)Cl)N)C3=NC=NC4=C3C=CN4 [Capivasertib] (first compound max 1 µM, 7x7, partner max 3 µM)",0.0119,-0.0454,-0.0201,-0.0427,-0.0689,0.0027,-0.009,-0.01,-0.0741,-0.0667,-0.053,-0.0075,-0.0374,-0.126,-0.0475,-0.0438,-0.0146,0.0144,0.095,-0.0057
"CC1(C)CCC(CN2CCN(c3ccc(C(=O)NS(=O)(=O)c4ccc(NCC5CCOCC5)c([N+](=O)[O-])c4)c(Oc4cnc5[nH]ccc5c4)c3)CC2)=C(c2ccc(Cl)cc2)C1 [Venetoclax] + CCN(CCO)CCCOc1ccc2c(Nc3cc(CC(=O)Nc4cccc(F)c4)[nH]n3)ncnc2c1 [AZD2811] (first compound max 1 µM, 7x7, partner max 1 µM)",-0.0612,0.0103,0.0239,0.0092,-0.0104,0.0721,0.0094,0.0084,-0.0312,-0.0499,-0.0146,0.0709,-0.0269,-0.0404,-0.098,-0.0385,-0.137,-0.0138,0.0073,0.0453
"CC1(C)CCC(CN2CCN(c3ccc(C(=O)NS(=O)(=O)c4ccc(NCC5CCOCC5)c([N+](=O)[O-])c4)c(Oc4cnc5[nH]ccc5c4)c3)CC2)=C(c2ccc(Cl)cc2)C1 [Venetoclax] + Cc1cc2ncnn2cc1Nc1ncc2c(n1)n(C1CCOCC1)c(=O)n2C [AZD7648] (first compound max 1 µM, 7x7, partner max 10 µM)",0.0424,-0.0318,0.0704,-0.0817,-0.0719,0.0149,0.003,-0.0672,-0.0531,-0.0624,0.045,0.0097,-0.0576,-0.0529,-0.0389,0.0582,-0.0007,-0.038,-0.0115,0.0053
